US20250100968A1, “BICYCLIC-HETEROCYCLE DERIVATIVES AND RELATED USES” (CENTESSA PHARMACEUTICALS (UK) LIMITED, priority 2022, published 2025)

Target: T1, human orexin type 2 receptor (hOX2R) (Homo sapiens, UniProt O43614)
T1 sequence (O43614 1-444): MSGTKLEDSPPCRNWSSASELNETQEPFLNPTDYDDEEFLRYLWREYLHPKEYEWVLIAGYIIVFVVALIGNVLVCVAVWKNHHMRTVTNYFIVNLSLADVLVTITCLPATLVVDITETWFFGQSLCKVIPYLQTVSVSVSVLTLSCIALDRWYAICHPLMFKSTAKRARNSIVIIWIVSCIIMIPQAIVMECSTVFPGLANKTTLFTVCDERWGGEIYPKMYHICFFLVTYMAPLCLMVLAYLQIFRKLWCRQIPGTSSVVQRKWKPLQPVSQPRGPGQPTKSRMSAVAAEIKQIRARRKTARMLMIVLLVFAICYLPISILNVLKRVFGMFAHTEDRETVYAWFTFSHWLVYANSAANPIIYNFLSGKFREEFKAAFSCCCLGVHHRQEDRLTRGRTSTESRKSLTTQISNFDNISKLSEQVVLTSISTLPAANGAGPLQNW
Assay: cell-based
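Further: agonist activity in CHO cells stably expressing hOX2R, intracellular Ca2+ via Calcium 5 dye fluorescence area over 2 min, buffer-only as 0% and 10 nM orexin A as 100%.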

Procedure: Measurement of orexin type 2 receptor agonist activity. […] After removal of the medium, 50 μl of assay buffer 1 (0.1% bovine serum albumin (Sigma Aldrich), 20 mM HEPES (Molecular Dimensions), 250 mM probenecid (Sigma Aldrich), 1× Calcium 5 dye (Molecular Devices) in Hank's balanced salt solution (Invitrogen)) was added, and the cells were incubated for 60 min under the conditions of 37° C., 5% CO2. A test compound was dissolved in dimethyl sulfoxide (Sigma Aldrich) to 10 mM, and then diluted with assay buffer 2 (20 mM HEPES, Hank's balanced salt solution, 0.1% bovine serum albumin). For the reaction, a test compound solution (10 μl) was added using Fluorescent Imaging Plate Reader TETRA (FLIPR TETRA: manufactured by Molecular Devices), a fluorescence value (excitation wavelength 488 nm, measurement wavelength 570 nm) of each well was measured every one second for 2 min, and the agonist activity was determined using the area of the fluorescence value as an indicator of intracellular Ca^2+ concentration. The agonist activity of the test compound was calculated assuming that the fluorescence value of the well added with only the dilution buffer was 0% and the fluorescence value of the well added with 10 nM human orexin A (Tocris) buffer was 100%.

| Compound | EC50 [nM] |
| --- | --- |
| C[C@@H](F)S(=O)(=O)N[C@@H]1[C@H](Cc2cc(F)cc(-c3ccccc3)c2F)N(C(=O)[C@H]2CCO2)CC12CC2 [compound 55, (S)-N-((6S,7S)-6-((2,5-difluoro-[1,1′-biphenyl]-3-yl)methyl)-5-((R)-oxetane-2-carbonyl)-5-azaspiro[2.4]heptan-7-yl)-1-fluoroethane-1-sulfonamide] | 1 to 10 |
| C[C@H](F)S(=O)(=O)N[C@@H]1[C@H](Cc2cc(F)cc(-c3ccccc3)c2F)N(C(=O)[C@H]2CCO2)CC12CC2 [compound 56, (R)-N-((6S,7S)-6-((2,5-difluoro-[1,1′-biphenyl]-3-yl)methyl)-5-((R)-oxetane-2-carbonyl)-5-azaspiro[2.4]heptan-7-yl)-1-fluoroethane-1-sulfonamide] | 0.0631 to 1 |
| C[C@@H](F)S(=O)(=O)N[C@@H]1[C@H](Cc2cc(F)cc(-c3cc(F)cc(F)c3)c2F)N(C(=O)[C@H]2CCO2)CC12CC2 [compound 57, (S)-1-fluoro-N-((6S,7S)-5-((R)-oxetane-2-carbonyl)-6-((2,3′,5,5′-tetrafluoro-[1,1′-biphenyl]-3-yl)methyl)-5-azaspiro[2.4]heptan-7-yl)ethane-1-sulfonamide] | 1 to 10 |
| C[C@H](F)S(=O)(=O)N[C@@H]1[C@H](Cc2cc(F)cc(-c3cc(F)cc(F)c3)c2F)N(C(=O)[C@H]2CCO2)CC12CC2 [compound 58, (R)-1-fluoro-N-((6S,7S)-5-((R)-oxetane-2-carbonyl)-6-((2,3′,5,5′-tetrafluoro-[1,1′-biphenyl]-3-yl)methyl)-5-azaspiro[2.4]heptan-7-yl)ethane-1-sulfonamide] | 1 to 10 |
| COC1CN(C(=O)N2CC3(CC3)[C@H](NS(=O)(=O)CF)[C@@H]2Cc2cc(F)cc(-c3ccccc3)c2F)C1 [compound 59, N-((6S,7S)-6-((2,5-difluoro-[1,1′-biphenyl]-3-yl)methyl)-5-(3-methoxyazetidine-1-carbonyl)-5-azaspiro[2.4]heptan-7-yl)-1-fluoromethanesulfonamide] | 1 to 10 |
| C[C@@H](NC(=O)N1CC2(CC2)[C@H](NS(=O)(=O)C(F)F)[C@@H]1Cc1cccc(-c2cc(F)cc(F)c2)c1F)C(F)F [compound 60, (6S,7S)-7-((difluoromethyl)sulfonamido)-N-((R)-1,1-difluoropropan-2-yl)-6-((2,3′,5′-trifluoro-[1,1′-biphenyl]-3-yl)methyl)-5-azaspiro[2.4]heptane-5-carboxamide] | 1 to 10 |
| C[C@H](CF)NC(=O)N1CC2(CC2)[C@H](NS(=O)(=O)CF)[C@@H]1Cc1cccc(-c2cc(F)cc(F)c2)c1F [compound 61, (6S,7S)-7-((fluoromethyl)sulfonamido)-N-((R)-1-fluoropropan-2-yl)-6-((2,3′,5′-trifluoro-[1,1′-biphenyl]-3-yl)methyl)-5-azaspiro[2.4]heptane-5-carboxamide] | 0.0631 to 1 |
| C[C@H](C#N)C(=O)N1CC2(CC2)[C@H](NS(=O)(=O)CF)[C@@H]1Cc1cccc(-c2cc(F)cc(F)c2)c1F [compound 62, N-((6S,7S)-5-((R)-2-cyanopropanoyl)-6-((2,3′,5′-trifluoro-[1,1′-biphenyl]-3-yl)methyl)-5-azaspiro[2.4]heptan-7-yl)-1-fluoromethanesulfonamide] | 1 to 10 |
| C[C@@H](C#N)C(=O)N1CC2(CC2)[C@H](NS(=O)(=O)CF)[C@@H]1Cc1cccc(-c2cc(F)cc(F)c2)c1F [compound 63, N-((6S,7S)-5-((S)-2-cyanopropanoyl)-6-((2,3′,5′-trifluoro-[1,1′-biphenyl]-3-yl)methyl)-5-azaspiro[2.4]heptan-7-yl)-1-fluoromethanesulfonamide] | 1 to 10 |
| CO[C@H](C)C(=O)N1CC2(CC2)[C@H](NS(=O)(=O)C(F)F)[C@@H]1Cc1cccc(-c2cc(F)cc(F)c2)c1F [compound 64, 1,1-difluoro-N-((6S,7S)-5-((R)-2-methoxypropanoyl)-6-((2,3′,5′-trifluoro-[1,1′-biphenyl]-3-yl)methyl)-5-azaspiro[2.4]heptan-7-yl)methanesulfonamide] | 1 to 10 |
| CO[C@@H](C)C(=O)N1CC2(CC2)[C@H](NS(=O)(=O)C(F)F)[C@@H]1Cc1cccc(-c2cc(F)cc(F)c2)c1F [compound 65, 1,1-difluoro-N-((6S,7S)-5-((S)-2-methoxypropanoyl)-6-((2,3′,5′-trifluoro-[1,1′-biphenyl]-3-yl)methyl)-5-azaspiro[2.4]heptan-7-yl)methanesulfonamide] | 1 to 10 |
| COC[C@@H](F)C(=O)N1CC2(CC2)[C@H](NS(=O)(=O)C(F)F)[C@@H]1Cc1cccc(-c2cc(F)cc(F)c2)c1F [compound 66, 1,1-difluoro-N-((6S,7S)-5-((R)-2-fluoro-3-methoxypropanoyl)-6-((2,3′,5′-trifluoro-[1,1′-biphenyl]-3-yl)methyl)-5-azaspiro[2.4]heptan-7-yl)methanesulfonamide] | 1 to 10 |
| CO[C@H](C)C(=O)N1CC2(CC2)[C@H](NS(=O)(=O)CF)[C@@H]1Cc1cccc(-c2cc(F)cc(F)c2)c1F [compound 68, 1-fluoro-N-((6S,7S)-5-((R)-2-methoxypropanoyl)-6-((2,3′,5′-trifluoro-[1,1′-biphenyl]-3-yl)methyl)-5-azaspiro[2.4]heptan-7-yl)methanesulfonamide] | 1 to 10 |
| CO[C@@H](C)C(=O)N1CC2(CC2)[C@H](NS(=O)(=O)CF)[C@@H]1Cc1cccc(-c2cc(F)cc(F)c2)c1F [compound 69, 1-fluoro-N-((6S,7S)-5-((S)-2-methoxypropanoyl)-6-((2,3′,5′-trifluoro-[1,1′-biphenyl]-3-yl)methyl)-5-azaspiro[2.4]heptan-7-yl)methanesulfonamide] | 0.0631 to 1 |
| C[C@@H](C#N)C(=O)N1CC2(CC2)[C@H](NS(=O)(=O)C(F)F)[C@@H]1Cc1cccc(-c2cc(F)cc(F)c2)c1F [compound 70, N-((6S,7S)-5-((S)-2-cyanopropanoyl)-6-((2,3′,5′-trifluoro-[1,1′-biphenyl]-3-yl)methyl)-5-azaspiro[2.4]heptan-7-yl)-1,1-difluoromethanesulfonamide] | 1 to 10 |
| CC(C)(F)CNC(=O)N1CC2(CC2)[C@H](NS(=O)(=O)C(F)F)[C@@H]1Cc1cccc(-c2cccc(F)c2)c1F [compound 71, (6S,7S)-6-((2,3′-difluoro-[1,1′-biphenyl]-3-yl)methyl)-7-((difluoromethyl)sulfonamido)-N-(2-fluoro-2-methylpropyl)-5-azaspiro[2.4]heptane-5-carboxamide] | 0.0631 to 1 |
| C[C@@](O)(CF)C(=O)N1CC2(CC2)[C@H](NS(=O)(=O)CF)[C@@H]1Cc1cc(F)cc(-c2ccccc2)c1F [compound 72, N-((6S,7S)-6-((2,5-difluoro-[1,1′-biphenyl]-3-yl)methyl)-5-((S)-3-fluoro-2-hydroxy-2-methylpropanoyl)-5-azaspiro[2.4]heptan-7-yl)-1-fluoromethanesulfonamide] | 0.0631 to 1 |
| CC(C)(F)CNC(=O)N1CC2(CC2)[C@H](NS(=O)(=O)CF)[C@@H]1Cc1cccc(-c2cccc(F)c2)c1F [compound 73, (6S,7S)-6-((2,3′-difluoro-[1,1′-biphenyl]-3-yl)methyl)-N-(2-fluoro-2-methylpropyl)-7-((fluoromethyl)sulfonamido)-5-azaspiro[2.4]heptane-5-carboxamide] | 1 to 10 |
| CC(F)(F)CNC(=O)N1CC2(CC2)[C@H](NS(=O)(=O)CF)[C@@H]1Cc1cc(F)cc(-c2ccccc2)c1F [compound 74, (6S,7S)-6-((2,5-difluoro-[1,1′-biphenyl]-3-yl)methyl)-N-(2,2-difluoropropyl)-7-((fluoromethyl)sulfonamido)-5-azaspiro[2.4]heptane-5-carboxamide] | 1 to 10 |
| C[C@@](O)(C(=O)N1CC2(CC2)[C@H](NS(=O)(=O)C(F)F)[C@@H]1Cc1cccc(-c2ccccc2)c1F)C1CC1 [compound 75, N-((6S,7S)-5-((S)-2-cyclopropyl-2-hydroxypropanoyl)-6-((2-fluoro-[1,1′-biphenyl]-3-yl)methyl)-5-azaspiro[2.4]heptan-7-yl)-1,1-difluoromethanesulfonamide] | 1 to 10 |
| N#CC1(C(=O)N2CC3(CC3)[C@H](NS(=O)(=O)CF)[C@@H]2Cc2cc(F)cc(-c3ccccc3)c2F)CC1 [compound 76, N-((6S,7S)-5-(1-cyanocyclopropane-1-carbonyl)-6-((2,5-difluoro-[1,1′-biphenyl]-3-yl)methyl)-5-azaspiro[2.4]heptan-7-yl)-1-fluoromethanesulfonamide] | 0.0631 to 1 |
| CC[C@@](C)(O)C(=O)N1CC2(CC2)[C@H](NS(=O)(=O)C(F)F)[C@@H]1Cc1cccc(-c2cc(F)cc(F)c2)c1F [compound 77, 1,1-difluoro-N-((6S,7S)-5-((R)-2-hydroxy-2-methylbutanoyl)-6-((2,3′,5′-trifluoro-[1,1′-biphenyl]-3-yl)methyl)-5-azaspiro[2.4]heptan-7-yl)methanesulfonamide] | 0.0631 to 1 |
| CC[C@](C)(O)C(=O)N1CC2(CC2)[C@H](NS(=O)(=O)C(F)F)[C@@H]1Cc1cccc(-c2cc(F)cc(F)c2)c1F [compound 78, 1,1-difluoro-N-((6S,7S)-5-((S)-2-hydroxy-2-methylbutanoyl)-6-((2,3′,5′-trifluoro-[1,1′-biphenyl]-3-yl)methyl)-5-azaspiro[2.4]heptan-7-yl)methanesulfonamide] | 1 to 10 |
| N#C[C@@]1(C(=O)N2CC3(CC3)[C@H](NS(=O)(=O)CF)[C@@H]2Cc2cccc(-c3cc(F)ccc3F)c2F)CCO1 [compound 79, N-((6S,7S)-5-((R)-2-cyanooxetane-2-carbonyl)-6-((2,2′,5′-trifluoro-[1,1′-biphenyl]-3-yl)methyl)-5-azaspiro[2.4]heptan-7-yl)-1-fluoromethanesulfonamide] | 0.0631 to 1 |
